Test results as given in paper PMC9611166, “Cocrystal Prediction of Bexarotene by Graph Convolution Network and Bioavailability Improvement” (Pharmaceutics, 2022).
Converted amounts (≈) assume the structure as drawn.

Key:
[1] = Equilibrium solubility in buffer solutions with 0.05% CTAB; type: physicochemical; conditions: for solubility thermodynamic at 1 day: buffer solution with 0.05% CTAB, aqueous with cosolvent or surfactant or cyclodextrin, thermodynamic from solid, 0.05% CTAB, 37 °C, one day
Experimental: (§1) The concentration of BEX samples was detected by the Agilent 1260 Series Infinite HPLC. The Eclipse XDB-C18 column (4.6 × 150 mm, 5 μm) was used to separate the analytes. The column temperature was set at 30 °C and the injection volume was 10 μL. The mobile phase was composed of 0.1% trifluoroacetic acid in water and acetonitrile (10:90, v/v) pumped at 1.0 mL/min. The 260 nm was set as the UV-vis detection wavelength.
Excess amounts (10 mg) of BEX and four cocrystals samples were added to the 4 mL of pH 2.0, 4.5, and 6.8 buffer solutions respectively, with the presence of 0.05% CTAB (hexadecyl trimethyl ammonium bromide). Then the saturated solutions were stirred at 300 rpm for one day at 37 °C. The equilibrium solubility of BEX was determined by HPLC after filtering the solutions.

[2] = Powder dissolution at pH 6.8 with 0.05% CTAB; type: physicochemical
Experimental: as §1
The solid samples of BEX and four cocrystals were sieved through 100-mesh sieves. In total, 20 mg of BEX and corresponding cocrystal powders (n = 3) were added to pH 6.8 phosphate buffer with the presence of 0.05% CTAB at 37 °C, rotating at 100 rpm. The samples were collected at 5, 10, 15, 20, 30, 40, 50, and 60 min. The concentration was measured by HPLC.

Pharmacokinetics in rats = type: in vivo; conditions: male, Sprague-Dawley, rat, plasma, po, 10 mg/kg BEX, 0.5% CMC-Na suspension, mean ± SD
Experimental: The PK studies were performed according to the Guide for Care and Use of Laboratory Animals and were approved by the Institutional Animal Care and Use Committee of Shanghai Institute of Materia Medica. There were two groups of male Sprague−Dawley rats and the number of rats is six in each group. […] The dose is 10 mg/kg BEX. The animals had free access to water and fasted overnight before dosing. After the administration, the 600 μL blood sample was collected at 0.5, 1, 2, 3, 4, 6, and 8 h. Plasma was separated by centrifugation (14,000 rpm, 10 min) and stored at −80 °C. In total, 200 μL of rat plasma sample was mixed with 600 μL acetonitrile through a vortex mixer for 20 min and centrifuged for 5 min (14,000 rpm). The BEX concentration was measured by the SCIEX Triple Quad™ 4500 LC-MS instrument. The analytes were separated by the Supelco Ascentis Express C18 column (2.1 × 50 mm, 2.7 μm). The column temperature was set at 35 °C. The mobile phase was composed of 0.2% formic acid in water (solvent A) and acetonitrile (solvent B) pumped at 0.6 mL/min. The gradient elution program started with 55% B and increased linearly to 90% B at 1.5 min and held for 0.5 min. It returned to the 55% B at the 3 min and held for 2 min. The injection volume was 10 μL, and the UV-vis detection wavelength was set at 260 nm. The negative ion detection mode was operated in the mass spectrometer. Multiple reaction monitoring modes (MRM) was used to perform the detection and quantification, with m/z 347.3→303.0 for BEX. The DAS 2.0 program was used to perform the PK analysis.

[3] = design: method as in PMID 24333772; conditions: cited from earlier work

- solubility thermodynamic at 1 day ([1]; pH 2.0 buffer): < 10 µg/mL
- solubility thermodynamic at 1 day ([1]; pH 4.5 buffer): > 10 µg/mL
- solubility thermodynamic at 1 day ([1]; pH 6.8 buffer): ~30 µg/mL (≈ 86.1 µM)
- pH value of solution after equilibrium solubility experiment ([1]; starting buffer pH 2.00, n = 3): 2.06 ± 0.01
- pH value of solution after equilibrium solubility experiment ([1]; starting buffer pH 4.50, n = 3): 4.58 ± 0.01
- pH value of solution after equilibrium solubility experiment ([1]; starting buffer pH 6.80, n = 3): 6.82 ± 0.02
- pH value of solution after powder dissolution ([2]; pH 6.8, n = 3): 6.81 ± 0.01
- solubility at 60 min ([2]; phosphate buffer with 0.05% CTAB, aqueous with cosolvent or surfactant or cyclodextrin, thermodynamic from solid, pH 6.8 phosphate buffer, 0.05% CTAB, 37 °C, 60 min, read-out: measured solubility in powder dissolution after 60 min): ~30 µg/mL (≈ 86.1 µM)
- AUC(0-inf) (Pharmacokinetics in rats): 8790 ± 1080 ng·h/mL
- Cmax (Pharmacokinetics in rats): 1680 ± 559 ng/mL
- half-life (Pharmacokinetics in rats): 2.98 ± 1.18 h
- AUC(0-t) (Pharmacokinetics in rats; read-out: AUC0−8h): 7220 ± 811 ng·h/mL
SMILES: C=C(c1ccc(C(=O)O)cc1)c1cc2c(cc1C)C(C)(C)CCC2(C)C [BEX, Bexarotene]
- absolute bioavailability [3]: less than 20%
